Key:
Format in all cases: cell-based, human
[1] = system: bioprinted full thickness skin tissue; assay: Lactate dehydrogenase (LDH) activity in media of bioprinted skin tissue, skin irritation test
Description: Bio-ink was generated by a cellular mixture of 100% primary adult human dermal fibroblasts (HDFa) in 8% gelatin (NOVOGEL 2.0) at a concentration of 100 million cells per milliliter. The cell: gelatin ratio was altered to reduce the cellular density of the dermal sheet to better mimic dermal tissue in native skin. Three-dimensional bio-ink constructs were printed by continuous deposition using the NOVOGEN BIOPRINTER platform in a 4 mm×4 mm×0.5 mm base to create a dermal structure resembling a sheet. […] The transwell printing surface contained a polytetrafluoroethylene (PTFE) membrane coated with equimolar mixture of types I and III collagen (bovine) with pores 3 μm in size. Epidermal cell paste containing a mixture of 100% primary neonatal human epidermal keratinocytes (HEKn) was then printed on top of the dermal bio-ink. Cell paste was measured post print at 87.1% viable by trypan exclusion assay. Cell numbers in the deposited epidermal layer was estimated at 60,000 cells by cell counting on a Cell-O-Meter. Immediately following the print, constructs were placed at 4° C. for 10 minutes. Cold media was then added to the outer well of the transwell in a volume of 3 ml. The media used for subsequent growth and maintenance of the skin tissue was a 50:50 ratio of HDFa: HEKn media. The initial volume added was sufficient to submerge the structure. All subsequent media changes used warmed media (37° C.) added to the outer well of the transwell and not to the inner basket. Media was changed 48 hours later and reduced to a volume of 1.5 ml per well to bring the structure to an air-liquid interface (ALI). Media and subsequently changed 48 hours after that (day 4) at a volume of 1.5 ml. […] IL-1α production (R&D Systems) was analyzed in a colorimetric assays per manufacturer's protocol. Media was analyzed for lactate dehydrogenase as a marker for cytotoxicity. IL-1α production was assessed as a complementary endpoint to classic cytotoxicity testing to improve predictability of irritants. […] Viability was measured as fluorescence in the media by conversion of resazurin to resorufin. […]

[2] = system: bioprinted full thickness skin tissue; assay: IL-1α production in media of bioprinted skin tissue (colorimetric assay), skin irritation test
Description: Bio-ink was generated by a cellular mixture of 100% primary adult human dermal fibroblasts (HDFa) in 8% gelatin (NOVOGEL 2.0) at a concentration of 100 million cells per milliliter. The cell: gelatin ratio was altered to reduce the cellular density of the dermal sheet to better mimic dermal tissue in native skin. Three-dimensional bio-ink constructs were printed by continuous deposition using the NOVOGEN BIOPRINTER platform in a 4 mm×4 mm×0.5 mm base to create a dermal structure resembling a sheet. […] The transwell printing surface contained a polytetrafluoroethylene (PTFE) membrane coated with equimolar mixture of types I and III collagen (bovine) with pores 3 μm in size. Epidermal cell paste containing a mixture of 100% primary neonatal human epidermal keratinocytes (HEKn) was then printed on top of the dermal bio-ink. Cell paste was measured post print at 87.1% viable by trypan exclusion assay. Cell numbers in the deposited epidermal layer was estimated at 60,000 cells by cell counting on a Cell-O-Meter. Immediately following the print, constructs were placed at 4° C. for 10 minutes. Cold media was then added to the outer well of the transwell in a volume of 3 ml. The media used for subsequent growth and maintenance of the skin tissue was a 50:50 ratio of HDFa: HEKn media. The initial volume added was sufficient to submerge the structure. All subsequent media changes used warmed media (37° C.) added to the outer well of the transwell and not to the inner basket. Media was changed 48 hours later and reduced to a volume of 1.5 ml per well to bring the structure to an air-liquid interface (ALI). Media and subsequently changed 48 hours after that (day 4) at a volume of 1.5 ml. On day 5, media was changed and further reduced to 1 ml per well and subsequently changed daily. On day 10, skin tissues were subject to a skin irritation test method using 1% TRITON X-100. 1% TRITON X-100 is a known irritant and reference chemical currently used in other 3D skin models. Methods were based on OECD guidelines 439 and 431 for applying human skin models to in vitro skin irritation or corrosion, respectively. On day 10, conditioned media was saved (designated time=0) and 1 ml of fresh media was added to the outer well of the transwell. The printed skin tissue was then treated with 20 μl of PBS as a negative control or with 20 μl of 1% TRITON X-100 as a positive control and known irritant. Test substances were pipetted manually to the apical surface of the tissue. TRITON X-100 was diluted to a 1% aqueous solution in deionized water and sterile filtered through a 20 micron filter before use. […] Media was saved (designated time=1 hour). Samples were then washed extensively by PBS rinsing. […] The media was then changed at 24 hours and at 48 hours post treatment. Total media collected included time points=−48, 0, 1, 24, and 48 hours. IL-1α production (R&D Systems) was analyzed in a colorimetric assays per manufacturer's protocol. Media was analyzed for lactate dehydrogenase as a marker for cytotoxicity. IL-1α production was assessed as a complementary endpoint to classic cytotoxicity testing to improve predictability of irritants. Keratinocytes normally produce and release inflammatory cytokine IL-1α in response to chemical or physical stress. […] Viability was measured as fluorescence in the media by conversion of resazurin to resorufin. […]

[3] = system: bioprinted full thickness skin tissue; assay: Viability of bioprinted skin tissue by alamar blue assay, skin irritation test
Description: Bio-ink was generated by a cellular mixture of 100% primary adult human dermal fibroblasts (HDFa) in 8% gelatin (NOVOGEL 2.0) at a concentration of 100 million cells per milliliter. The cell: gelatin ratio was altered to reduce the cellular density of the dermal sheet to better mimic dermal tissue in native skin. Three-dimensional bio-ink constructs were printed by continuous deposition using the NOVOGEN BIOPRINTER platform in a 4 mm×4 mm×0.5 mm base to create a dermal structure resembling a sheet. […] The transwell printing surface contained a polytetrafluoroethylene (PTFE) membrane coated with equimolar mixture of types I and III collagen (bovine) with pores 3 μm in size. Epidermal cell paste containing a mixture of 100% primary neonatal human epidermal keratinocytes (HEKn) was then printed on top of the dermal bio-ink. Cell paste was measured post print at 87.1% viable by trypan exclusion assay. Cell numbers in the deposited epidermal layer was estimated at 60,000 cells by cell counting on a Cell-O-Meter. Immediately following the print, constructs were placed at 4° C. for 10 minutes. Cold media was then added to the outer well of the transwell in a volume of 3 ml. The media used for subsequent growth and maintenance of the skin tissue was a 50:50 ratio of HDFa: HEKn media. The initial volume added was sufficient to submerge the structure. All subsequent media changes used warmed media (37° C.) added to the outer well of the transwell and not to the inner basket. Media was changed 48 hours later and reduced to a volume of 1.5 ml per well to bring the structure to an air-liquid interface (ALI). Media and subsequently changed 48 hours after that (day 4) at a volume of 1.5 ml. On day 5, media was changed and further reduced to 1 ml per well and subsequently changed daily. On day 10, skin tissues were subject to a skin irritation test method using 1% TRITON X-100. 1% TRITON X-100 is a known irritant and reference chemical currently used in other 3D skin models. Methods were based on OECD guidelines 439 and 431 for applying human skin models to in vitro skin irritation or corrosion, respectively. On day 10, conditioned media was saved (designated time=0) and 1 ml of fresh media was added to the outer well of the transwell. The printed skin tissue was then treated with 20 μl of PBS as a negative control or with 20 μl of 1% TRITON X-100 as a positive control and known irritant. […] IL-1α production (R&D Systems) was analyzed in a colorimetric assays per manufacturer's protocol. Media was analyzed for lactate dehydrogenase as a marker for cytotoxicity. IL-1α production was assessed as a complementary endpoint to classic cytotoxicity testing to improve predictability of irritants. […] Viability was measured as fluorescence in the media by conversion of resazurin to resorufin. […]

CCCCCCCCCCCCOS(=O)(=O)[O-].[Na+] [SDS]
LDH activity higher than PBS [1]: about 1.7 fold
IL-1α production [2]: much stronger response
irritancy under these testing conditions, 5% SDS versus 1% TRITON X-100 [3]: much stronger irritant
viability compared to the PBS control (alamar blue assay) [3]: 2.45%
